Source: PubChem BioAssay AID1199 (EPA DSSTox, 2008)
Calls of active or inactive are those of the source.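 The calls were made as follows: active = a tumour-causing dose and a tumour site recorded for mice in at least one sex group; inconclusive = only government mouse studies exist and were judged inadequate; inactive = mouse studies exist but none gave tumours.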

The molecules below were run on mouse carcinogenicity bioassay, TD50 from CPDB (assay: DSSTox (CPDBAS) Carcinogenic Potency Database Summary Mouse Bioassay Results). Settings: not given.
Outline: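 Values are TD50 carcinogenic potencies from mouse chronic bioassays, taking the most positive result for each sex-species. Sources are published literature and NCI/NTP studies; target sites reflect author-reported positive findings.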

Row | Compound | Potency [mmol/kg/day]
1 | C#CC(C)(C)NC(=O)c1cc(Cl)cc(Cl)c1 | 0.547
2 | O=NN1CCCCC1 | 0.0114
3 | O=NN1CCCC1 | 0.00678

Same assay, conditions: TD50_Mouse_Note: TD50_Mouse_mmol was not calculated for this mixture, but Activiity Score is assigned value of 50 to indicate active

Row | Compound | outcome
4 | COc1cc2c(c3oc(=O)c4c(c13)CCOC4=O)C1C=COC1O2 (stereo not drawn) | active; hematopoietic system
5 | Clc1cccc(-c2ccc(Cl)c(Cl)c2Cl)c1Cl | active; liver

Same assay, conditions: TD50_Mouse_Note: TD50 is harmonic mean of more than one positive test

Row | Compound | Potency [mmol/kg/day]
6 | CC(C)(Oc1ccc(C2CC2(Cl)Cl)cc1)C(=O)O (stereo not drawn) | 0.0214

Same assay, conditions: TD50_Mouse_Note: TD50 is harmonic mean of more than one positive test; TargetSites_Mouse_Female: ear Zymbals gland; harderian gland; liver; lung; mammary gland; peritoneal cavity; stomach; subcutaneous tissue; vascula

Row | Compound | Potency [mmol/kg/day]
7 | C=CC(=C)Cl | 0.0923

Same assay, conditions: TD50_Mouse_Note: TD50 is harmonic mean of more than one positive test; TargetSites_Mouse_Female: harderian gland; liver; lung

Row | Compound | Potency [mmol/kg/day]
8 | C[N+](=O)[O-] | 7.68

Same assay, conditions: TD50_Mouse_Note: TD50 is harmonic mean of more than one positive test; TargetSites_Mouse_Female: hematopoietic system; liver; thyroid gland

Row | Compound | Potency [mmol/kg/day]
9 | Nc1ccc(Cc2ccc(N)cc2)cc1 | 0.119

Same assay, conditions: TD50_Mouse_Note: TD50 is harmonic mean of more than one positive test; TargetSites_Mouse_Female: hematopoietic system; lung

Row | Compound | Potency [mmol/kg/day]
10 | Cc1ncc([N+](=O)[O-])n1CCO | 2.96

Same assay, conditions: TD50_Mouse_Note: TD50 is harmonic mean of more than one positive test; TargetSites_Mouse_Female: hematopoietic system; stomach

Row | Compound | Potency [mmol/kg/day]
11 | Nc1nc(/C=C/c2ccc([N+](=O)[O-])o2)no1 | 0.504
12 | O=P(OCCCl)(OCCCl)OCCCl | 3.39

Same assay, conditions: TD50_Mouse_Note: TD50 is harmonic mean of more than one positive test; TargetSites_Mouse_Female: liver

Row | Compound | Potency [mmol/kg/day]
13 | Clc1cc2c(c(Cl)c1Cl)Oc1c(cc(Cl)c(Cl)c1Cl)O2 | 3.66e-06
14 | Cc1ccc(C)c(N)c1 | 3.97
15 | O=Cc1ccco1 | 2.05
16 | CCC1(c2ccccc2)C(=O)NCNC1=O | 0.12
17 | ClC(Cl)(Cl)C(Cl)(Cl)Cl | 1.43
18 | Nc1ccc(Cl)cc1N | 9.4
19 | CCCCC(CC)COC(=O)CCCCC(=O)OCC(CC)CCCC (stereo not drawn) | 10.5

Same assay, conditions: TD50_Mouse_Note: TD50 is harmonic mean of more than one positive test; TargetSites_Mouse_Female: liver; stomach

Row | Compound | Potency [mmol/kg/day]
20 | O=C(O)c1cc(Oc2ccc(C(F)(F)F)cc2Cl)ccc1[N+](=O)[O-] | 0.39

Same assay, conditions: TD50_Mouse_Note: TD50 is harmonic mean of more than one positive test; TargetSites_Mouse_Female: liver; vascular system

Row | Compound | Potency [mmol/kg/day]
21 | O=C1c2ccccc2CN2C(=O)c3ccccc3CN12 | 3.27

Same assay, conditions: TD50_Mouse_Note: TD50 is harmonic mean of more than one positive test; TargetSites_Mouse_Female: lung

Row | Compound | Potency [mmol/kg/day]
22 | C=C1C/C(=C/C)C(=O)O[C@@H]2CCN3CC=C(COC(=O)[C@@]1(O)CO)[C@H]23 | 0.00564
23 | CC(CCl)OC(C)CCl (stereo not drawn) | 1.12
24 | CCCNN | 0.411

Same assay, conditions: TD50_Mouse_Note: TD50 is harmonic mean of more than one positive test; TargetSites_Mouse_Female: lung; mammary gland; vascular system

Row | Compound | Potency [mmol/kg/day]
25 | C=CCl | 0.349

Same assay, conditions: TD50_Mouse_Note: TD50 is harmonic mean of more than one positive test; TargetSites_Mouse_Female: lung; nasal cavity; stomach

Row | Compound | Potency [mmol/kg/day]
26 | ClCC(Br)CBr (stereo not drawn) | 0.0115

Same assay, conditions: TD50_Mouse_Note: TD50 is harmonic mean of more than one positive test; TargetSites_Mouse_Female: no positive results

Row | Compound | Potency [mmol/kg/day]
27 | ClCCOCCCl | 0.0818

Same assay, conditions: TD50_Mouse_Note: TD50 is harmonic mean of more than one positive test; no positive results are statistically significant; TargetSites_Mouse_Female: large intestine

Row | Compound | Potency [mmol/kg/day]
28 | COc1cc(CNC(=O)CCCC/C=C/C(C)C)ccc1O | 0.547

Same assay, conditions: TD50_Mouse_Note: no positive results

Row | Compound | outcome
29 | CCCCCCCCCCCCCCCC(=O)OC/C=C(C)/C=C/C=C(C)/C=C/C1=C(C)CCCC1(C)C | inactive; no positive results

Same assay, conditions: TD50_Mouse_Note: no positive results are statistically significant; TargetSites_Mouse_Female: no positive results

Row | Compound | Potency [mmol/kg/day]
30 | COc1cc(-c2ccc(N)c(OC)c2)ccc1N | 0.233

Same assay, conditions: TD50_Mouse_Note: no positive results; TargetSites_Mouse_Female: no positive results

Row | Compound | outcome
31 | Nc1ccc([N+](=O)[O-])cc1 | inactive; no positive results
32 | Clc1nc(Cl)nc(Nc2ccccc2Cl)n1 | inactive; no positive results
33 | COc1ccc(CN(CCN(C)C)c2ccccn2)cc1 | inactive; no positive results
34 | [Cl-].[Cl-].[Hg+2] | inactive; no positive results
35 | S=C(NC1CCCCC1)NC1CCCCC1 | inactive; no positive results
36 | Cc1ccc(C)c(OCCCC(C)(C)C(=O)O)c1 | inactive; no positive results
37 | C=CCc1ccc(O)c(OC)c1 | inactive; no positive results
38 | CN(C)C(=S)SSC(=S)N(C)C | inactive; no positive results
39 | CN(C)C(=O)Nc1cccc(C(F)(F)F)c1 | inactive; no positive results
40 | Cc1[nH]cnc1CSCCN=C(NC#N)N(C)N=O | inactive
41 | CCOC(=O)[C@H](CCc1ccccc1)N[C@@H](C)C(=O)N1Cc2ccccc2C[C@H]1C(=O)O | inactive; no positive results
42 | CCN(CC)CC#CC(C)(C)OC(=O)C(O)(c1ccccc1)C1CCCCC1 (stereo not drawn) | inactive; no positive results
43 | C[C@]12CC[C@@H]3c4ccc(O)cc4CC[C@H]3[C@@H]1CC[C@@H]2O | inactive
44 | COc1ccc(C(c2ccc(OC)cc2)C(Cl)(Cl)Cl)cc1 | inactive; no positive results
45 | COc1ccc2nc(S(=O)Cc3ncc(C)c(OC)c3C)[nH]c2c1 (stereo not drawn) | inactive; no positive results
46 | O=C1CCCO1 | inactive; no positive results
47 | CCC(O)OC(O)CC (stereo not drawn) | inactive; no positive results
48 | CCOP(=O)(CC1CO1)OCC (stereo not drawn) | inactive
49 | CC(C)OC(=O)Nc1ccccc1 | inactive; no positive results
50 | COc1ccc(C(=O)/C(Br)=C\C(=O)O)cc1 | inactive; no positive results
51 | F | inactive; no positive results
52 | Cn1c(=O)c2[nH]cnc2n(C)c1=O | inactive; no positive results
53 | CC(=O)OC1CC(C)OC(C)O1 (stereo not drawn) | inactive; no positive results
